Measurements from patent publication US10988477B2 (Merck Patent GmbH, priority 2018, dated 2021).

Assays:
[1] = target: GCN2 kinase (Homo sapiens, UniProt Q9P2K8); experiment: GCN2 enzyme inhibition assay (Transcreener ADP2 fluorescence polarization); type: biochemical; conditions: 280 μM ATP
Method in brief: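 4 nM GCN2 + 200 μM (RS)7 + compound (0–8 μM), 10 min preinc.; start with ATP (280 μM final); 1 h, 25 °C; pH 7.5 Tris/NaCl/MgCl2/DTT; ADP FP readout; IC50, Ki(app) via tight-binding fit.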

[2] = target: intracellular GCN2 (phosphorylation of the GCN2 substrate eIF2α) (Homo sapiens, UniProt Q9P2K8); experiment: GCN2 cellular inhibition assay (AlphaScreen SureFire P-eIF2α Ser51, borrelidin-treated U2OS cells); type: cell-based; conditions: biomarker assay, phosphorylated eIF2α Ser51 in borrelidin-treated U2OS cells
intracellular GCN2 (phosphorylation of the GCN2 substrate eIF2α), sequence (Q9P2K8 whole entry): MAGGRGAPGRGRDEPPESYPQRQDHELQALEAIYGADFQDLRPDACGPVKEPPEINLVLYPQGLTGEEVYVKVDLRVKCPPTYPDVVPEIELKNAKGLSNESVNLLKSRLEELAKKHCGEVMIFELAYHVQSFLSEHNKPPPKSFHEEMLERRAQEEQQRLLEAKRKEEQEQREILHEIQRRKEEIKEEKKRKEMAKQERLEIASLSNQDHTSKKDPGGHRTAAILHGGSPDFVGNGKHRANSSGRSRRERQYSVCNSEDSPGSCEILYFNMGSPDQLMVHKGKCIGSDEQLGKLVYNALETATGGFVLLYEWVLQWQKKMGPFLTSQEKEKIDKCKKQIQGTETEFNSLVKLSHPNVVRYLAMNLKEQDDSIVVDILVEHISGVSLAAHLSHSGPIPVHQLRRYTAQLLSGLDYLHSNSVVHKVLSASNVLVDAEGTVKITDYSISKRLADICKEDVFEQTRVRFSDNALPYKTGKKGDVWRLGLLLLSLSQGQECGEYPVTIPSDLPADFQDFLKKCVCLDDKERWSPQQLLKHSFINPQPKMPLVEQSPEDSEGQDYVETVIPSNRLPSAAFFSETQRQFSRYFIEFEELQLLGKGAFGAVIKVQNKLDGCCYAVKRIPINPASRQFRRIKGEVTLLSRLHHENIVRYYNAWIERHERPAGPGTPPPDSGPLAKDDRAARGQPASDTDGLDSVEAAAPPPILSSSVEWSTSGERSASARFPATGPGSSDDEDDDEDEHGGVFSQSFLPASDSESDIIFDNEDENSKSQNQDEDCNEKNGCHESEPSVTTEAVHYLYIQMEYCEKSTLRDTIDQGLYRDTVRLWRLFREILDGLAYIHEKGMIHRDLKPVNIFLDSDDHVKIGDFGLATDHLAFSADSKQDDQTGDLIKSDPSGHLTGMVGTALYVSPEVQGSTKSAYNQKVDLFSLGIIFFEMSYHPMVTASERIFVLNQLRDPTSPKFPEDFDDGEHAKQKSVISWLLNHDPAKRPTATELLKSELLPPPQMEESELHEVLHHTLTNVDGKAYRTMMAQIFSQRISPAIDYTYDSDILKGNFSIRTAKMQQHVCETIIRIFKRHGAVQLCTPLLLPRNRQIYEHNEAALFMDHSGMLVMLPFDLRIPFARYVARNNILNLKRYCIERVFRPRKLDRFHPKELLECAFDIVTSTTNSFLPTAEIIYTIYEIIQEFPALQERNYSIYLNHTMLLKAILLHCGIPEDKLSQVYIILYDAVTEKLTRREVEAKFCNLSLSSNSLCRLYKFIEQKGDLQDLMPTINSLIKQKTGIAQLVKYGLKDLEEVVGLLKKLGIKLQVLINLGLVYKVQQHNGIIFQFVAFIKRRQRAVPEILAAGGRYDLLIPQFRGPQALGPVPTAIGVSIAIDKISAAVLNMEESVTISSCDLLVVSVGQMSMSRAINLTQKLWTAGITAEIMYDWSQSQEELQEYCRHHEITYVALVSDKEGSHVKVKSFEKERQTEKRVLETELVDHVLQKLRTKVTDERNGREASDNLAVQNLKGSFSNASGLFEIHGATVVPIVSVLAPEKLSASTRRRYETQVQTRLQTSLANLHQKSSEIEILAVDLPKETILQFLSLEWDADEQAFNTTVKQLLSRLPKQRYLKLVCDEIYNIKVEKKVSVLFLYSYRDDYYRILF
Method in brief: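 Borrelidin at 10 μM is added to U2OS cells immediately after compound (4-fold dilution series, 40 μM top final) for 1 h at 37 °C. Phosphorylated eIF2α Ser51 in lysates is quantified by AlphaScreen and expressed as percent inhibition against borrelidin-stimulated controls.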

[3] = Enzyme activity for compounds of Formula IV, Ki(app), 25° C.
[4] = compounds of Formula II, 4 nM GCN2 kinase

GCN2 kinase, sequence (Q9P2K8 whole entry): as above

Row | SMILES | Ki [1, 3] | IC50 ([2]; compounds of Formula IV) | IC50 [1, 4] | IC50 ([2]; compounds of Formula II) | Ki [1, 4]
1 | C[C@@H]1CC[C@H](C(N)=O)CN1c1ccnc(-c2cnc3cnc(C(F)F)cn23)n1 (racemic) [IV-106, Cis-1-(2-(6-(Difluoromethyl)imidazo[1,2-a]pyrazin-3-yl)pyrimidin-4-yl)-6-methylpiperidine-3 carboxamide] | 10 to 100 nM | 500 to 5000 nM |  |  | 
2 | CS(C)(=O)=NC1CC(c2cn[nH]c2)CN(c2ccnc(-c3cnc4cnc(C(F)(F)F)cn34)n2)C1 (single isomer, unassigned) [IV-400, ((5-(1H-Pyrazol-4-yl)-1-(2-(6-(trifluoromethyl)imidazo[1,2-a]pyrazin-3-yl)pyrimidin-4-yl)piperidin-3-yl)imino)dimethyl-λ^6-sulfanone] | 10 to 100 nM | > 5000 nM |  |  | 
3 | CC1CN(c2nccc(-c3cnc4cnc(C(F)(F)F)cn34)n2)CC(c2cn[nH]c2)O1 (single isomer, unassigned) [IV-200, 2-Methyl-6-(1H-pyrazol-4-yl)-4-(4-(6-(trifluoromethyl)imidazo[1,2-a]pyrazin-3-yl)pyrimidin-2-yl)morpholine] | < 10 nM | 500 to 5000 nM |  |  | 
4 | Cc1[nH]ncc1[C@@H]1CN(c2cc(-c3cnc4ccc(C(F)(F)F)nn34)ncn2)C[C@H](C)O1 [II-767, (2S,6R)-2-methyl-6-(5-methyl-1H-pyrazol-4-yl)-4-(6-(6-(trifluoromethyl)imidazo[1,2-b]pyridazin-3-yl)pyrimidin-4-yl)morpholine] |  |  | 10 to 1000 nM | < 500 nM | 
5 | Cn1cc(C2CCN(c3ccnc(-c4cnc5cnc(C(F)F)cn45)n3)C2)cn1 (centres unmarked) [IV-65, 6-(Difluoromethyl)-3-(4-(3-(1-methyl-1H-pyrazol-4-yl)pyrrolidin-1-yl)pyrimidin-2-yl)imidazo[1,2-a]pyrazine] | 100 to 1000 nM | > 5000 nM |  |  | 
6 | CC1CC(N=S(C)(C)=O)CN(c2cc(-c3cnc4ccc(C(F)F)nn34)ccn2)C1 (centres unmarked) [II-716, ((1-(4-(6-(Difluoromethyl)imidazo[1,2-b]pyridazin-3-yl)pyridin-2-yl)-5-methylpiperidin-3-yl)imino)dimethyl-λ^6-sulfanone] |  |  |  | < 500 nM | < 10 nM
7 | FC(F)c1ccc2ncc(-c3ccnc(N4CCOC(c5cn[nH]c5)C4)c3)n2n1 (centres unmarked) [II-108, 4-(4-(6-(Difluoromethyl)imidazo[1,2-b]pyridazin-3-yl)pyridin-2-yl)-2-(1H-pyrazol-4-yl)morpholine] |  |  |  | 500 to 5000 nM | 10 to 1000 nM
8 | CC1CN(c2ccnc(-c3cnc4cnc(C(F)(F)F)cn34)n2)C(C)C(c2c[nH]c(C(F)(F)F)n2)N1 (single isomer, unassigned) [IV-673, 3-(4-(2,5-Dimethyl-3-(2-(trifluoromethyl)-1H-imidazol-4-yl)piperazin-1-yl)pyrimidin-2-yl)-6-(trifluoromethyl)imidazo[1,2-a]pyrazine] | < 10 nM | 500 to 5000 nM |  |  | 
9 | CN(C)S(=O)(=O)C1CCCN(c2ccnc(-c3cnc4cnc(C(F)F)cn34)n2)C1 (centres unmarked) [IV-170, 1-(2-(6-(Difluoromethyl)imidazo[1,2-a]pyrazin-3-yl)pyrimidin-4-yl)-N,N-dimethylpiperidine-3-sulfonamide] | 100 to 1000 nM | > 5000 nM |  |  | 
10 | CC1C(CO)OCCN1c1cc(-c2cnc3ccc(C(F)F)nn23)ncn1 (single isomer, unassigned) [II-413, (4-(6-(6-(Difluoromethyl)imidazo[1,2-b]pyridazin-3-yl)pyrimidin-4-yl)-3-methylmorpholin-2-yl)methanol] |  |  |  | > 5000 nM | > 1000 nM
11 | Fc1n[nH]cc1C1CCN(c2ccnc(-c3cnc4cnc(C(F)(F)F)cn34)n2)C1 (single isomer, unassigned) [IV-563, 3-(4-(3-(3-Fluoro-1H-pyrazol-4-yl)pyrrolidin-1-yl)pyrimidin-2-yl)-6-(trifluoromethyl)imidazo[1,2-a]pyrazine] | < 10 nM | 500 to 5000 nM |  |  | 
12 | CC1(c2n[nH]cc2C2CCN(c3ccnc(-c4cnc5cnc(C(F)(F)F)cn45)n3)C2)CC1 (centres unmarked) [IV-630, 3-(4-(3-(3-(1-Methylcyclopropyl)-1H-pyrazol-4-yl)pyrrolidin-1-yl)pyrimidin-2-yl)-6-(trifluoromethyl)imidazo[1,2-a]pyrazine] | 10 to 100 nM | > 5000 nM |  |  | 
13 | O=C1CCC2CN(c3cc(-c4cnc5ccc(C(F)F)nn45)ccn3)CCN12 (centres unmarked) [II-167, 2-(4-(6-(Difluoromethyl)imidazo[1,2-b]pyridazin-3-yl)pyridin-2-yl)hexahydropyrrolo[1,2-a]pyrazin-6(2H)-one] |  |  |  | > 5000 nM | 10 to 1000 nM
14 | C[C@@H]1CO[C@H](CNS(C)(=O)=O)CN1c1cc(-c2cnc3ccc(C(F)F)nn23)ncn1 [II-197, N-(((2S,5R)-4-(6-(6-(Difluoromethyl)imidazo[1,2-b]pyridazin-3-yl)pyrimidin-4-yl)-5-methylmorpholin-2-yl)methyl)methanesulfonamide] |  |  |  | < 500 nM | < 10 nM
15 | Cc1n[nH]c(C)c1C1CN(c2ccnc(-c3cnc4cnc(C(F)(F)F)cn34)n2)CC(C)N1 (single isomer, unassigned) [IV-465, 3-(4-(3-(3,5-Dimethyl-1H-pyrazol-4-yl)-5-methylpiperazin-1-yl)pyrimidin-2-yl)-6-(trifluoromethyl)imidazo[1,2-a]pyrazine] | 10 to 100 nM | 500 to 5000 nM |  |  | 
16 | CC1C(CNS(C)(=O)=O)CCN1c1cc(-c2cnc3ccc(C(F)F)nn23)ncn1 (centres unmarked) [II-244, N-((1-(6-(6-(Difluoromethyl)imidazo[1,2-b]pyridazin-3-yl)pyrimidin-4-yl)-2-methylpyrrolidin-3-yl)methyl)methanesulfonamide] |  |  |  | > 5000 nM | 10 to 1000 nM
17 | CC1C(c2cn[nH]c2)CC(P(C)(C)=O)CN1c1ccnc(-c2cnc3cnc(C(F)(F)F)cn23)n1 (centres unmarked) [IV-693, Dimethyl(6-methyl-5-(1H-pyrazol-4-yl)-1-(2-(6-(trifluoromethyl)imidazo[1,2-a]pyrazin-3-yl)pyrimidin-4-yl)piperidin-3-yl)phosphine oxide] | 10 to 100 nM | > 5000 nM |  |  | 
18 | FC(F)(F)c1cn2c(-c3nccc(N4CCCC(c5cnco5)C4)n3)cnc2cn1 (centres unmarked) [IV-678, 5-(1-(2-(6-(Trifluoromethyl)imidazo[1,2-a]pyrazin-3-yl)pyrimidin-4-yl)piperidin-3-yl)oxazole] | 10 to 100 nM | 500 to 5000 nM |  |  | 
19 | CC1C[S+]([O-])CCN1c1cc(-c2cnc3ccc(C(F)F)nn23)ncn1 (single isomer, unassigned) [II-356, 4-(6-(6-(Difluoromethyl)imidazo[1,2-b]pyridazin-3-yl)pyrimidin-4-yl)-3-methylthiomorpholine 1-oxide] |  |  |  | > 5000 nM | 10 to 1000 nM
20 | FC(F)(F)c1cn2c(-c3ccnc(N4CCOC(c5cn[nH]c5)C4)n3)cnc2cn1 (centres unmarked) [IV-40, 2-(1H-Pyrazol-4-yl)-4-(4-(6-(trifluoromethyl)imidazo[1,2-a]pyrazin-3-yl)pyrimidin-2-yl)morpholine] | 10 to 100 nM | < 500 nM |  |  | 
21 | C[C@H]1[C@@H](c2cn[nH]c2)OCCN1c1ccnc(-c2cnc3cnc(C(F)(F)F)cn23)n1 (racemic) [IV-215, Cis-3-Methyl-2-(1H-pyrazol-4-yl)-4-(2-(6-(trifluoromethyl)imidazo[1,2-a]pyrazin-3-yl)pyrimidin-4-yl)morpholine] | 10 to 100 nM | < 500 nM |  |  | 
22 | CC1C(c2cn[nH]c2)CCN1c1ccnc(-c2cnc3cnc(C(F)(F)F)cn23)n1 (centres unmarked) [IV-689, 3-(4-(2-Methyl-3-(1H-pyrazol-4-yl)pyrrolidin-1-yl)pyrimidin-2-yl)-6-(trifluoromethyl)imidazo[1,2-a]pyrazine] | 10 to 100 nM | > 5000 nM |  |  | 
